Assay results published in patent US11993573B2, “Chromane-substituted, tetrahydroquinoline-substituted and thiochromane-substituted heteroarotinoids as anti-cancer agents” (THE BOARD OF REGENTS FOR OKLAHOMA STATE UNIVERSITY, priority 2018, dated 2024).
Read-outs that look alike come from different tables or passages of the source.

Test system: human ovarian cancer cell line A2780
Assay: Growth inhibition assay (CellTiter 96 Non-Rad Cell Proliferation Assay)
Format: cell-based
Conditions: for efficacy compared with SHetA2 / IC50 compared with SHetA2: comparison in words; for IC50 compared with SHetA2: 'exceeded' = lower IC50 in Table 1
Protocol: To illustrate the general activity of the compounds inhibiting growth of human […] ovarian cancer cells, selected compounds were synthesized and evaluated. The compounds were dissolved in DMSO at a concentration of 0.01 M. The human ovarian cancer cell line A2780 was plated in 96-well tissue culture dishes at a concentration of 3000 cells per well in RPMI medium supplemented with 10% fetal bovine serum and a mixture of antibiotics and antimycotics. The next day, the cultures were treated in triplicate with compound concentrations ranging from 2 μM to 8 μM increments. For compound 12, additional experiments were performed with concentrations of 10 μM and a series of two-fold dilutions to 156 nM. Control cultures were treated with DMSO solvent only. After 72 h of incubation, the […] 96® Non-Rad Cell Proliferation Assay (Promega) was used to quantify the remaining metabolically living cells. After subtracting blank values, the optical density (OD) readouts of the assay for the treated cultures were normalized with the average OD of the control cultures. For each compound, the experiment was repeated at least once, resulting in a minimum of 6 dose-response curves. For SHetA2, 24 response curves were available for statistical fitting parameters. A custom program was written in GNU Octave, a free software compatible with Matlab, to fit the dose-response curves with a four-parameter sigmoid function, extracting the IC50 and efficacy (the maximal % growth inhibition) parameters.
To illustrate the useful biological activity of these chroman-substituted and tetrahydroquinoline-substituted heteroarotinoids, the compounds were screened against human […] ovarian cancer cells.

[1] = Homo sapiens, A2780, 72 h, Table 1, chroman-containing series
[2] = Homo sapiens, A2780, 72 h, Table 1, maximal % growth inhibition, A2780, 72 h, read-out: Efficacy
[3] = Homo sapiens, A2780, 72 h, Table 2, tetrahydroquinoline-containing members
[4] = Homo sapiens, A2780, 72 h, Table 2, maximal % growth inhibition, A2780, 72 h, read-out: Efficacy
[5] = Table 2, tetrahydroquinoline-containing members, A2780, 72 h
[6] = Table 2, maximal % growth inhibition, A2780, 72 h
[7] = Homo sapiens, A2780, Table 3, 14 series (thiochroman), A2780
[8] = Homo sapiens, A2780, Table 3, 14 series, A2780, read-out: % Efficacy

| Compound | IC50 [1] [µM] | IC50 [7] [µM] | Emax [2] [%] | efficacy compared with SHetA2 (A2780) | Emax [8] [%] | other results |
| --- | --- | --- | --- | --- | --- | --- |
| CC1(C)CC(C)(C)c2cc(NC(=S)Nc3ccc([N+](=O)[O-])cc3)ccc2O1 [Compound 2a, 1-(4-Nitrophenyl)-3-(2,2,4,4-tetramethylchroman-6-yl)thiourea] | 6.97 | – | 87 | exceeded the efficacy of SHetA2 | – | – |
| CCOC(=O)c1ccc(NC(=S)Nc2ccc3c(c2)C(C)(C)CC(C)(C)O3)cc1 [Compound 2b, Ethyl 4-(3-(2,2,4,4-Tetramethylchroman-6-yl)thioureido)benzoate] | 4.3 | – | 26 | – | – | – |
| CC1(C)CCOc2ccc(NC(=S)Nc3ccc([N+](=O)[O-])cc3)cc21 [Compound 4a, 1-(4-Nitrophenyl)-3-(4,4-dimethylchroman-6-yl)thiourea] | 6.4 | – | 19 | – | – | – |
| CC1(C)CCOc2ccc(NC(=O)Nc3ccc([N+](=O)[O-])cc3)cc21 [Compound 5a, 1-(4-Nitrophenyl)-3-(4,4-dimethylchroman-6-yl)urea] | 6.7 | – | 74 | – | – | – |
| CC1(C)CCOc2ccc(NC(=O)Nc3ccc(C(F)(F)F)cc3)cc21 [Compound 5b] | – | – | – | – | – | IC50 (Table 1, chroman-containing series, A2780, 72 h): 5 µM; Efficacy (Table 1, maximal % growth inhibition, A2780, 72 h): 47% |
| CCC1(CC)CC(C)(C)c2cc(NC(=S)Nc3ccc([N+](=O)[O-])cc3)ccc2O1 [Compound 6a, 1-(2,2-Diethyl-4,4-dimethylchroman-6-yl)-3-(4-nitrophenyl)thiourea] | 2.9 | – | 93.9 | exceeded the efficacy of SHetA2 | – | IC50 compared with SHetA2 (A2780): exceeded |
| CCC1(CC)CC(C)(C)c2cc(NC(=O)Nc3ccc([N+](=O)[O-])cc3)ccc2O1 [Compound 6b, 1-(2,2-Diethyl-4,4-dimethylchroman-6-yl)-3-(4-nitrophenyl)urea] | 2.17 | – | 93.3 | exceeded the efficacy of SHetA2 | – | IC50 compared with SHetA2 (A2780): exceeded |
| CCC1(CC)CC(C)(C)Oc2ccc(NC(=S)Nc3ccc([N+](=O)[O-])cc3)cc21 [Compound 7a, 1-(4,4-Diethyl-2,2-dimethylchroman-6-yl)-3-(4-nitrophenyl)thiourea] | 3.69 | – | 95.7 | exceeded the efficacy of SHetA2 | – | – |
| CCC1(CC)CC(C)(C)Oc2ccc(NC(=O)Nc3ccc([N+](=O)[O-])cc3)cc21 [Compound 7c, 1-(4,4-Diethyl-2,2-dimethylchroman-6-yl)-3-(4-nitrophenyl)urea] | 2.05 | – | 93.6 | exceeded the efficacy of SHetA2 | – | IC50 compared with SHetA2 (A2780): exceeded |
| CC1(C)CC[N+](C)(C)c2ccc(NC(=O)Nc3ccc([N+](=O)[O-])cc3)cc21 [Compound 10, 1,1,4,4-Tetramethyl-6-(3-(4-nitrophenyl)ureido)-1,2,3,4-tetrahydroquinolin-1-ium Iodide] | – | – | – | – | – | IC50 [3]: 6.6 µM; Emax [4]: 22% |
| CN1c2ccc(NC(=S)Nc3ccc(C(F)(F)F)cc3)cc2C(C)(C)C(=O)C1(C)C [Compound 11d] | – | – | – | – | – | IC50 [5]: 3.9 µM; Efficacy [6]: 90.8 (±2.0) % |
| CN1c2ccc(NC(=O)Nc3ccc(N)cc3)cc2C(C)(C)C(=O)C1(C)C [Compound 11g, 1-(4-Aminophenyl)-3-(1,2,2,4,4-pentamethyl-3-oxo-1,2,3,4-tetrahydroquinolin-6-yl)urea] | – | – | – | – | – | IC50 [3]: 7.7 µM; Emax [4]: 24% |
| CN1c2ccc(NC(=S)Nc3ccc([N+](=O)[O-])cc3)cc2C(C)(C)C(O)C1(C)C (centres unmarked) [Compound 13b] | – | – | – | – | – | IC50 [5]: 10 µM; Efficacy [6]: 25 (±4) % |

Further lines, with some results ahead:

| IC50 [1] [µM] | IC50 [7] [µM] | Compound | Emax [2] [%] | efficacy compared with SHetA2 (A2780) | Emax [8] [%] | other results |
| --- | --- | --- | --- | --- | --- | --- |
| 4.6 | – | CCC1(CC)CC(CC)(CC)c2cc(NC(=S)Nc3ccc([N+](=O)[O-])cc3)ccc2O1 [Compound 8a, 1-(4-Nitrophenyl)-3-(2,2,4,4-tetraethylchroman-6-yl)thiourea] | 94 | exceeded the efficacy of SHetA2 | – | – |
| 2.09 | – | CCC1(CC)CC(CC)(CC)c2cc(NC(=O)Nc3ccc([N+](=O)[O-])cc3)ccc2O1 [Compound 8b, 1-(4-Nitrophenyl)-3-(2,2,4,4-tetraethylchroman-6-yl)urea] | 91.4 | exceeded the efficacy of SHetA2 | – | IC50 compared with SHetA2 (A2780): exceeded |
| – | 3.79 ± 0.05 | CC1(C)CC(C)(C)c2cc(NC(=O)Nc3ccc(C(F)(F)F)cc3)ccc2S1 [Compound 14a, 1-(2,2,4,4-Tetramethylthiochroman-6-yl)-3-(4-(trifluoromethyl)phenyl)urea] | – | exceeded that of SHetA2 in efficacy | 93.3 ± 0.1 | – |
| – | 1.86 ± 0.09 | CC1(C)CC(C)(C)c2cc(NC(=O)Nc3ccc(OC(F)(F)F)cc3)ccc2S1 [Compound 14b, 1-(2,2,4,4-Tetramethylthiochroman-6-yl)-3-(4-(trifluoromethoxy)phenyl)urea] | – | exceeded that of SHetA2 in efficacy | 95.6 ± 0.4 | – |
| – | 3.93 ± 0.03 | CC1(C)CC(C)(C)c2cc(NC(=O)Nc3ccc(C#N)cc3)ccc2S1 [Compound 14c, 1-(4-Cyanophenyl)-3-(2,2,4,4-tetramethylthiochroman-6-yl)urea] | – | exceeded that of SHetA2 in efficacy | 93.3 ± 0.1 | – |
| – | 3.17 ± 0.25 | CC1(C)CC(C)(C)c2cc(NC(=S)Nc3ccc(Cl)cc3)ccc2S1 [Compound 14d, 1-(4-Chlorophenyl)-3-(2,2,4,4-tetramethylthiochroman-6-yl)thiourea] | – | exceeded that of SHetA2 in efficacy | 91.9 ± 0.5 | – |
| – | 2.86 ± 0.29 | CC1(C)CC(C)(C)c2cc(NC(=S)Nc3ccc(C(F)(F)F)cc3)ccc2S1 [Compound 14e, 1-(2,2,4,4-Tetramethylthiochroman-6-yl)-3-(4-(trifluoromethyl)phenyl)thiourea] | – | exceeded that of SHetA2 in efficacy | 95.9 ± 0.6 | – |
| – | 3.51 ± 0.07 | CC1(C)CC(C)(C)c2cc(NC(=S)Nc3ccc(OC(F)(F)F)cc3)ccc2S1 [Compound 14f, 1-(2,2,4,4-Tetramethylthiochroman-6-yl)-3-(4-(trifluoromethoxy)phenyl)thiourea] | – | exceeded that of SHetA2 in efficacy | 95.3 ± 0.4 | – |
| – | 3.53 ± 0.12 | CC1(C)CC(C)(C)c2cc(NC(=S)Nc3ccc(C(N)=O)cc3)ccc2S1 [Compound 14g, 4-(3-(2,2,4,4-Tetramethylthiochroman-6-yl)thioureido)benzamide] | – | – | 64.2 ± 1.8 | – |
| – | 2.78 ± 0.47 | COc1ccc(NC(=S)Nc2ccc3c(c2)C(C)(C)CC(C)(C)S3)cc1 [Compound 14h, 1-(4-Methoxyphenyl)-3-(2,2,4,4-tetramethylthiochroman-6-yl)thiourea] | – | – | 59.8 ± 1.2 | – |
| – | 3.04 ± 0.52 | COc1cccc(NC(=S)Nc2ccc3c(c2)C(C)(C)CC(C)(C)S3)c1 [Compound 14i, 1-(3-Methoxyphenyl)-3-(2,2,4,4-tetramethylthiochroman-6-yl)thiourea] | – | – | 38.8 ± 0.04 | – |
| – | 3.03 ± 0.47 | CC1(C)CC(C)(C)c2cc(NC(=S)NCc3ccccc3)ccc2S1 [Compound 14j, 1-Benzyl-3-(2,2,4,4-tetramethylthiochroman-6-yl)thiourea] | – | exceeded that of SHetA2 in efficacy | 85.6 ± 0.6 | – |
| – | 3.19 ± 0.47 | CC1(C)CC(C)(C)c2cc(NC(=S)NCCc3ccccc3)ccc2S1 [Compound 14k, 1-Phenethyl-3-(2,2,4,4-tetramethylthiochroman-6-yl)thiourea] | – | exceeded that of SHetA2 in efficacy | 88.2 ± 0.3 | – |
| – | 2.98 ± 0.44 | CC1(C)CC(C)(C)c2cc(NC(=S)NCc3ccc(Cl)cc3)ccc2S1 [Compound 14l, 1-(4-Chlorobenzyl)-3-(2,2,4,4-tetramethylthiochroman-6-yl)thiourea] | – | exceeded that of SHetA2 in efficacy | 89.4 ± 2.8 | – |
| – | 4.7 ± 0.11 | CC1(C)CC(C)(C)c2cc(NC(=S)NCc3ccc([N+](=O)[O-])cc3)ccc2S1 [Compound 14m, 1-(4-Nitrobenzyl)-3-(2,2,4,4-tetramethylthiochroman-6-yl)thiourea] | – | exceeded that of SHetA2 in efficacy | 94.5 ± 0.6 | – |
| – | 4.82 ± 0.41 | CC1(C)CC(C)(C)c2cc(NC(=S)NCc3ccc(C(F)(F)F)cc3)ccc2S1 [Compound 14n, 1-(2,2,4,4-Tetramethylthiochroman-6-yl)-3-(4-(trifluoromethyl)benzyl)thiourea] | – | exceeded that of SHetA2 in efficacy | 95.3 ± 0.3 | – |
| – | 3.26 ± 0.43 | COc1ccc(CNC(=S)Nc2ccc3c(c2)C(C)(C)CC(C)(C)S3)cc1 [Compound 14o, 1-(4-Methoxybenzyl)-3-(2,2,4,4-tetramethylthiochroman-6-yl)thiourea] | – | exceeded that of SHetA2 in efficacy | 89.6 ± 0.9 | – |
